For 30 compounds, IC50 results are on record in patent US20070054916A1, “Aryl nitrogen-containing bicyclic compounds and methods of use” (Amgen Inc., priority 2004, published 2007).

What is called IC50 is the concentration needed to halve the response being measured.

The subject of this test is production of TNF by monocytes activated with bacterial lipopolysaccharide (LPS). The experiment in a line: Lipopolysaccharide-activated monocyte TNF production assay. The class given is cell-based. The conditions noted are these: Homo sapiens, read-out: IC50 values in the monocyte assay (LPS induced TNF release). The procedure:
Lipopolysaccharide-Activated Monocyte TNF Production Assay
Test compounds were evaluated in vitro for the ability to inhibit the production of TNF by monocytes activated with bacterial lipopolysaccharide (LPS). Fresh residual source leukocytes (a byproduct of plateletpheresis) were obtained from a local blood bank, and peripheral blood mononuclear cells (PBMCs) were isolated by density gradient centrifugation on Ficol-Paque Plus (Pharmacia). PBMCs were suspended at 2×10^6/ml in DMEM supplemented to contain 2% FCS, 10 mM, 0.3 mg/ml […], 100 U/ml penicillin G and […] streptomycin sulfate (complete media). Cells were plated into Falcon flat bottom, 96 well culture plates (200 μl/well) and cultured overnight at 37° C. and 6% CO2. Non-adherent cells were removed by washing with 200 μl/well of fresh medium. Wells containing adherent cells (˜70% monocytes) were replenished with 100 μl of fresh medium.
Preparation of Test Compound Stock Solutions
Test compounds were dissolved in […]. Compound stock solutions were prepared to an initial concentration of […]. Stocks were diluted initially to 20-200 μM in complete media. Nine two-fold serial dilutions of each compound were then prepared in complete medium.
Treatment of Cells with Test Compounds and Activation of TNF Production with Lipopolysaccharide
One hundred microliters of each test compound dilution were added to microtiter wells containing adherent monocytes and 100 μl complete medium. Monocytes were cultured with test compounds for 60 min at which time 25 μl of complete medium containing 30 ng/ml lipopolysaccharide from E. coli K532 were added to each well. Cells were cultured an additional 4 hrs. Culture supernatants were then removed and TNF presence in the supernatants was quantified using an ELISA.
Flat bottom, 96 well Corning High Binding ELISA plates were coated overnight (4° C.) with 150 μL/well of 3 μg/ml murine anti-human TNF-α MAb (R&D Systems #MAB210). Wells were then blocked for 1 hr at room temperature with 200 μL/well of CaCl2-free ELISA buffer supplemented to contain 20 mg/ml BSA (standard ELISA buffer: […], 150 mM NaCl, 2 mM CaCl2, 0.15 mM thimerosal, pH 7.4). Plates were washed and replenished with 100 μl of test supernatants (diluted 1:3) or standards. Standards consisted of eleven 1.5-fold serial dilutions from a stock of 1 ng/ml recombinant human TNF (R&D Systems). Plates were incubated at room temperature for 1 hr on orbital shaker (300 rpm), washed and replenished with 100 μl/well of 0.5 ug/ml goat anti-human TNF-α (R&D systems #AB-210-NA) biotinylated at a 4:1 ratio. Plates were incubated for 40 min, washed and replenished with 100 μl/well of alkaline phosphatase-conjugated streptavidin (Jackson ImmunoResearch #016-050-084) at 0.02 ug/ml. Plates were incubated 30 min, washed and replenished with 200 μl/well of 1 mg/ml of p-nitrophenyl phosphate. After 30 min, plates were read at 405 nm on a Vmax plate reader.
Standard curve data were fit to a second order polynomial and unknown TNF-α concentrations determined from their OD by solving this equation for concentration. TNF concentrations were then plotted vs. test compound concentration using a second order polynomial. This equation was then used to calculate the concentration of test compounds causing a 50% reduction in TNF production.
In the case of `Cc1ccc(C(=O)Nc2ncccc2O)cc1-c1ccc2nc(N)ncc2c1` [Example 361, 3-(2-amino-6-quinazolinyl)-N-(3-hydroxy-2-pyridinyl)-4-methylbenzamide], the IC50 is at most 25 µM. On to `Cc1ccc(C(=O)Nc2cccc(C(F)(F)F)c2)cc1-c1ccc2nc(N)ncc2c1` [Example 120, 3-(2-amino-6-quinazolinyl)-4-methyl-N-(3-(trifluoromethyl)phenyl)benzamide], for which the IC50 was at most 25 µM.

With `Cc1ccc(C(=O)Nc2ncccc2OCCCN2CCCCC2)cc1-c1ccc2nc(N)ncc2c1` [Example 362, 3-(2-amino-6-quinazolinyl)-4-(methyl-N-(3-((3-1-piperidinyl)propyl)oxy)-2-pyridinyl)benzamide], the IC50 is at most 25 µM. Regarding `Cc1ccc(NC(=O)c2cccc(C(C)C)c2)cc1-c1ccc2nc(N)ncc2c1` [Example 432, N-(3-(2-aminoquinazolin-6-yl)-4-methylphenyl)-3-isopropylbenzamide], the IC50 is at most 25 µM. `Nc1ncc2cc(-c3ccc(F)c(NC(=O)c4cc(F)cc(C(F)(F)F)c4)c3)ccc2n1` [Example 489, N-(5-(2-amino-6-quinazolinyl)-2-fluorophenyl)-3-fluoro-5-(trifluoromethyl)benzamide]: the IC50 was at most 25 µM. Then `CC(=O)c1sccc1NC(=O)c1ccc(C)c(-c2ccc3nc(N)ncc3c2)c1` [Example 355, N-(2-acetyl-3-thienyl)-3-(2-amino-6-quinazolinyl)-4-methylbenzamide], with at most 25 µM; and `Cc1ccc(C(=O)Nc2cc(C(F)(F)F)ccc2OCCCN(C)C)cc1-c1ccc2nc(N)ncc2c1` [Example 144, 3-(2-amino-6-quinazolinyl)-N-(2-((3-(dimethylamino)propyl)oxy)-5-(trifluoromethyl)phenyl)-4-methylbenzamide], with at most 25 µM. Take `COc1ccc(NC(=O)c2ccc(C)c(-c3ccc4nc(N)ncc4c3)c2)c(OC)c1` [Example 270, 3-(2-amino-6-quinazolinyl)-N-(2,4-bis(methyloxy)phenyl)-4-methylbenzamide]: the IC50 is at most 25 µM. Consider `CNc1ncc2cc(-c3cccc(NC(=O)c4cc(C(F)(F)F)cc(C(F)(F)F)c4)c3C)cnc2n1` [Example 221], for which the IC50 is at most 25 µM. Turning to `Cc1ccc(C(=O)Nc2cc(C(F)(F)F)ccc2N(C)CCCN(C)C)cc1-c1ccc2nc(N)ncc2c1` [Example 114, 3-(2-amino-6-quinazolinyl)-N-(2-((3-(dimethylamino)propyl)(methyl)amino)-5-(trifluoromethyl)phenyl)-4-methylbenzamide], the IC50 is at most 25 µM. For the compound `Cc1ccc(C(=O)Nc2cccc(C(F)(F)F)c2F)cc1-c1ccc2nc(N)ncc2c1` [Example 19, 3-(2-amino-6-quinazolinyl)-N-(2-fluoro-3-(trifluoromethyl)phenyl)-4-methylbenzamide], the concentration for half-maximal inhibition (IC50) is at most 25 µM. Regarding `Nc1ncc2cc(-c3cc(C(=O)Nc4cccc(C(F)(F)F)c4F)ccc3Cl)ccc2n1` [Example 140, 3-(2-amino-6-quinazolinyl)-4-chloro-N-(2-fluoro-3-(trifluoromethyl)phenyl)benzamide], the IC50 was at most 25 µM. As for `CSc1ccc(C(F)(F)F)cc1NC(=O)c1ccc(C)c(-c2ccc3nc(N)ncc3c2)c1` [Example 146, 3-(2-amino-6-quinazolinyl)-4-methyl-N-(2-(methylsulfanyl)-5-(trifluoromethyl)phenyl)benzamide], the IC50 is at most 25 µM. With `Cc1ccc(C(=O)Nc2cccc(C(F)(F)F)c2)cc1-c1ccc2nc(NCCN3CCOCC3)ncc2c1` [Example 20, 4-methyl-3-(2-((2-(4-morpholinyl)ethyl)amino)-6-quinazolinyl)-N-(3-(trifluoromethyl)phenyl)benzamide], the IC50 is at most 25 µM. Then `CCN(CC)S(=O)(=O)c1ccc(OC)c(NC(=O)c2ccc(C)c(-c3ccc4nc(N)ncc4c3)c2)c1` [Example 231, 3-(2-amino-6-quinazolinyl)-N-(5-((diethylamino)sulfonyl)-2-(methyloxy)phenyl)-4-methylbenzamide], with at most 25 µM; and `COc1ccc(NC(=O)c2ccc(C)c(-c3ccc4nc(N)ncc4c3)c2)c(OC)n1` [Example 233, 3-(2-amino-6-quinazolinyl)-N-(2,6-bis(methyloxy)-3-pyridinyl)-4-methylbenzamide], with at most 25 µM; and `Cc1ccc(C(=O)Nc2cccc(C(F)(F)F)c2F)cc1-c1ccc2nc(NC3CCN(C)CC3)ncc2c1` [Example 25], with at most 25 µM. Then `Nc1ncc2cc(-c3cc(NC(=O)c4cccc(C(F)(F)F)c4)ccc3C(F)(F)F)ccc2n1` [Example 196], with at most 25 µM. As for `CNc1ncc2cc(-c3cc(NC(=O)c4cccc(C(F)(F)F)c4F)ccc3C)cnc2n1` [Example 202], the IC50 was at most 25 µM. The value for `CN(C)CCOc1ccc(-c2ccc3nc(N)ncc3c2)cc1C(=O)Nc1cccc(C(F)(F)F)c1` [Example 57, 5-(2-amino-6-quinazolinyl)-2-((2-(dimethylamino)ethyl)oxy)-N-(3-(trifluoromethyl)phenyl)benzamide] was at most 25 µM. The value for `CCN(CC)CCCOc1ccc(NC(=O)c2ccc(C)c(-c3ccc4nc(N)ncc4c3)c2)cc1C(F)(F)F` [Example 122, 3-(2-amino-6-quinazolinyl)-N-(4-((3-(diethylamino)propyl)oxy)-3-(trifluoromethyl)phenyl)-4-methylbenzamide] was at most 25 µM; that for `CNc1ncc2cc(-c3cc(C(=O)Nc4cccc(C(F)(F)F)c4)ccc3C)cnc2n1` [Example 167, 4-methyl-3-(2-(methylamino)pyrido[2,3-d]pyrimidin-6-yl)-N-(3-(trifluoromethyl)phenyl)benzamide] was at most 25 µM; that for `Cc1ccc(C(=O)Nc2ncccc2OCc2ccccc2)cc1-c1ccc2nc(N)ncc2c1` [Example 358, 3-(2-amino-6-quinazolinyl)-4-methyl-N-(3-((phenylmethyl)oxy)-2-pyridinyl)benzamide] was at most 25 µM. The value for `CN(C)[C@@H]1CCN(c2ccc(C(F)(F)F)cc2NC(=O)c2cc(-c3ccc4nc(N)ncc4c3)ccc2F)C1` [Example 422, 5-(2-amino-6-quinazolinyl)-N-(2-((3R)-3-(dimethylamino)-1-pyrrolidinyl)-5-(trifluoromethyl)phenyl)-2-fluorobenzamide] was at most 25 µM. In the case of `Cc1ccc(C(=O)Nc2cccc(Cl)c2Cl)cc1-c1ccc2nc(N)ncc2c1` [Example 232, 3-(2-amino-6-quinazolinyl)-N-(2,3-dichlorophenyl)-4-methylbenzamide], the IC50 was at most 25 µM.

For `Cc1ccc(C(=O)Nc2cccc(C(F)(F)F)c2C)cc1-c1ccc2nc(NC3CCN(C)CC3)ncc2c1` [Example 36, 4-methyl-3-(2-((1-methyl-4-piperidinyl)amino)-6-quinazolinyl)-N-(2-methyl-3-(trifluoromethyl)phenyl)benzamide], the IC50 was at most 25 µM. Then `COc1ccc(Cl)cc1NC(=O)Nc1ccc(-c2ccc3nc(N)ncc3c2)c(C)c1` [Example 520, N-(4-(2-amino-6-quinazolinyl)-3-methylphenyl)-N′-(5-chloro-2-(methyloxy)phenyl)urea], with at most 25 µM; and `CN1CCN(c2ccc(C(F)(F)F)cc2C(=O)Nc2cc(-c3ccc4nc(N)ncc4c3)ccc2F)CC1` [Example 434, N-(5-(2-aminoquinazolin-6-yl)-2-fluorophenyl)-2-(4-methylpiperazin-1-yl)-5-(trifluoromethyl)benzamide], with at most 25 µM. In the case of `Cc1ccc(C(=O)Nc2cccc(C(F)(F)F)c2F)cc1-c1ccc2nc(Nc3ccc(N4CCN(C)CC4)cc3)ncc2c1` [Example 30, N-(2-fluoro-3-(trifluoromethyl)phenyl)-4-methyl-3-(2-((4-(4-methyl-1-piperazinyl)phenyl)amino)-6-quinazolinyl) benzamide], the IC50 was at most 25 µM.

For the compound `Cc1ccc(C(=O)Nc2cccc3ncccc23)cc1-c1ccc2nc(N)ncc2c1` [Example 281, 3-(2-amino-6-quinazolinyl)-4-methyl-N-(5-quinolinyl)benzamide], the IC50 is at most 25 µM.
